# Assay results reported in patent publication EP0214009A2, “Enaminones as potential prodrugs of primary and secondary amines” (priority 1985, dated 1987).
# Like-named read-outs stand apart in the source and are kept apart here.
# Assays:
# [1] = Chemical hydrolysis in isotonic Sorensen phosphate buffer, followed spectrophotometrically; format: physicochemical; conditions: pH 7.4, 25°C, no enzyme, read-out: apparent half lives for chemical hydrolysis
# [2] = Hydrolysis in the presence of porcine liver esterase (half-lives, Michaelis-Menten parameters from Lineweaver Burk plots); format: in vitro ADME; conditions: pig; 60 × 10⁻⁴ units/ml porcine liver esterase, initial substrate concentration 16 µM, pH 7.4, 25°C; read-out: apparent half lives in the presence of porcine liver esterase
# Porcine liver esterase = experiment: as above; format: in vitro ADME
# [3] = Hydrolysis in the presence of rat plasma; format: in vitro ADME
# [4] = Hydrolysis in the presence of human plasma; format: in vitro ADME
# [5] = Hydrolysis in the presence of rat liver homogenates; format: in vitro ADME
# [6] = Hydrolysis in the presence of rat intestinal homogenates; format: in vitro ADME
# carbonic anhydrase = experiment: Hydrolysis in the presence of carbonic anhydrase; format: in vitro ADME
structure (smiles),measurement,setting,value
"CCOC(=O)C1=C(Nc2ccccc2)CCCC1 [Example 2, Ethyl 2-(N-phenylamino)-l-cyclohexene-l-carboxylate]",half-life,[1],18 min
same,half-life at 16 µM,[2],10 min
same,Km,"Porcine liver esterase; average over the three enzyme concentrations, read-out: Average Km",7.2 mM
same,Vmax ± S.D.,Porcine liver esterase; enzyme concentration 16.7 (Units/ml x 10^4),45.5 ± 3 mM/h
same,Km,"Porcine liver esterase; enzyme concentration 16.7 (Units/ml x 10^4), read-out: Km ± S.D.",11.2 ± 0.1 mM
same,Vmax ± S.D.,Porcine liver esterase; enzyme concentration 32.4 (Units/ml x 10^4),56.8 ± 8 mM/h
same,Km,"Porcine liver esterase; enzyme concentration 32.4 (Units/ml x 10^4), read-out: Km ± S.D.",5.3 ± 0.2 mM
same,Vmax ± S.D.,Porcine liver esterase; enzyme concentration 61.2 (Units/ml x 10^4),95.2 ± 10 mM/h
same,Km,"Porcine liver esterase; enzyme concentration 61.2 (Units/ml x 10^4), read-out: Km ± S.D.",5.2 ± 0.2 mM
same,Catalysis of the hydrolysis,[3],not observed
same,Catalysis of the hydrolysis,[4],not observed
same,Catalysis of the hydrolysis,[5],not observed
same,Catalysis of the hydrolysis,[6],not observed
same,Catalysis of the hydrolysis,carbonic anhydrase,not observed
